Measured values taken from patent US20210010089A1, “TUMOR MINIMAL RESIDUAL DISEASE STRATIFICATION” (VIB VZW, priority 2018, published 2021).

How the values were obtained:
[1] = test system: GFRA2-positive MEL006 cells; assay: FACS of GFRA2-positive cells (NDTCs) in MEL006 cultures
Protocol: Cells were resuspended in FACS sorting buffer (culture medium supplied with 1% EDTA 100 mM).

[2] = test system: MM052 melanoma cells; assay: Colony assay and Cell Titer Glo assay in short culture melanoma line
Protocol: Cells were grown to near confluency on 12well plates and treated with the indicated drug combinations for the indicated time period.
2500 cells were plated onto a 96well plate and treated with the indicated drug combinations for the indicated time period. Cell Titer Glo assay was performed according to the manufacturer's instruction (Promega) and luminescence was measured on a VictorX3 (Perkin Elmer).

[3] = test system: RAR; details: pan-RXR agonist; cited from earlier work
[4] = test system: wild-type cells (MM163); assay: GFRA2 expression (RT-qPCR) in short-term melanoma culture; assay type: cell-based, human; details: triple wild-type culture exposed to both trametinib and bexarotene
From the text: C) wild-type cells (MM163).

[5] = test system: NRAS-mutant cells (MM165); assay: as above; details: NRAS-mutant culture exposed to both trametinib and bexarotene
From the text: Cells resuspended in QiAzol using an miRNeasy Kit and processed according to the manufacturer's instructions (QIAGEN) or in RA1lysis buffer using the RNA NucleoSpin extraction kit (Macherey&Nagel).
Data processing with qbase+2.6 software (Biogazelle) relies on normalization with a minimum of 2 reference genes, indicated as RefGen below.

[6] = test system: MRD subpopulation gene signatures; assay: Analysis of available RNASeq data of melanoma patients on immunotherapy (Riaz et al. 2017); parameters: species or system human; details: patient subgroups SD+PD versus CR+PR; results not shown
From the text: Although the therapy selecting for these 4 MRD-stage subpopulations as applied in the Examples herein relies on combined inhibition of BRAF and MEK kinases, it can be envisaged that other therapeutic modalities also give rise to the emergence of the same or some of these 4 MRD-stage subpopulations. […] Likewise, targeted therapies of cancers other than melanoma can lead to a MRD phase during which one or more of the MRD subpopulations as identified herein for melanoma are present. Such targeted therapies include e.g. anti-VEGF (bevacizumab), anti-EGFR (cetuximab, erlotinib), mTOR inhibition (everolimus), Tyr-kinase inhibitor/anti-EGFR (gefitinib), Tyr-kinase inhibition/BCR-ABL inhibition (imatinib), anti-HER2/anti-EGFR (lapatinib), and Tyr-kinase inhibition (sorafenib, sunitinib). On the one hand, as described above, different therapies targeting melanoma can be expected to induce all or part of the minimal residual disease tumor subpopulations as described herein. On the other hand, it can be envisaged that inhibition of the MAPK-pathway (with BRAF and/or MEK inhibitors) is inducing in cancers or tumors different from melanoma one or more minimal residual disease tumor subpopulations as described herein for melanoma.

Compound: CN1c2ccc([N+](=O)[O-])cc2N=C(c2ccc(C(=O)O)cc2)c2cc3c(cc21)C(C)(C)CCC3(C)C [HX531]
- drug-dependent induction of GFRA2-positive cells ([1]; in presence of IC50 concentrations of the BRAF and MEK-inhibitors): completely inhibited emergence of drug-dependent induction of GFRA2-positive cells
- effect on sensitivity of MM52 cells to trametinib ([2]; HX531 2 uM, trametinib 2 nM, colony assay 7 days, Cell Titer Glo 6 days): sensitized these cells to trametinib

Compound: CN(c1ncccc1CNc1nc(Nc2ccc3c(c2)CC(=O)N3)ncc1C(F)(F)F)S(C)(=O)=O [PF-562271]
- drug-dependent emergence of the GFRA2-high cell population ([1]; FAK inhibitor added to DT-treated MEL006 cells): diminished the drug-dependent emergence of the GFRA2-high cell population in a dose-dependent manner

Compound: CC1(C)CCC(C)(C)c2cc(C3(c4ccc(C(=O)O)cc4)OCCO3)ccc21 [SR 11237]
- RAR activity [3]: devoid of any RAR activity

Compound: C=C(c1ccc(C(=O)O)cc1)c1cc2c(cc1C)C(C)(C)CCC2(C)C [bexarotene]
- GFRA2 expression levels [4]: increase
- GFRA2 expression levels [5]: increase
- effect on sensitivity to a combination of trametinib/FAK-inhibitors ([2]; MM52 cells): increased the sensitivity
- long-term growth inhibition ([2]; MM52 culture, compound alone): did not induce measurable long-term growth inhibition
- cells in which cell death occurred ([2]; bexarotene with trametinib/FAK-inhibitors, after 3 days of treatment (data not shown)): ~100%
- effect on sensitivity of MM52 cells to trametinib ([2]; concentrations as low as 10 nM): significantly decreased the sensitivity

Compound: nivolumab: PD-1 inhibitor
- induction of MRD subpopulations (trend) [6]: induce at least the pigmented state and MITFmedium-hypometabolic state MRD subpopulations
